By remaining activity is commonly meant the signal under treatment as a percentage of the control signal.

Holding throughout (test): Kinase profile (33P ATP filter binding)
What all share (assay type): biochemical

One assay addresses CDK2-Cyclin A (Homo sapiens, UniProt P24941). The method, then: (§1) The compounds were diluted to the appropriate concentration. The compounds were added to a “mother plate” consisting of samples, controls, and blanks. These serve as the source for “daughter plates” which are stored at −20 °C until assay initiation. Protein Kinases: Enzyme/Substrate mixture was added to the compound, and the compounds were incubated for five minutes at room temperature (RT). ^33P ATP was added to the compounds to initiate the assay. Orthophosphoric acid was added to the compounds to halt the assay. Assay components were harvested onto P81 filter plates, filter plates were air-dried, scintillation fluid was added to plates, and counts were read on a Topcount NXT. A mean percentage activity was calculated.

A further assay deals with p38b MAPK (Homo sapiens, UniProt Q15759). The following applies: read-out: Remaining protein kinase activity. On the procedure: as §1
p38b MAPK, sequence (Q15759 whole entry): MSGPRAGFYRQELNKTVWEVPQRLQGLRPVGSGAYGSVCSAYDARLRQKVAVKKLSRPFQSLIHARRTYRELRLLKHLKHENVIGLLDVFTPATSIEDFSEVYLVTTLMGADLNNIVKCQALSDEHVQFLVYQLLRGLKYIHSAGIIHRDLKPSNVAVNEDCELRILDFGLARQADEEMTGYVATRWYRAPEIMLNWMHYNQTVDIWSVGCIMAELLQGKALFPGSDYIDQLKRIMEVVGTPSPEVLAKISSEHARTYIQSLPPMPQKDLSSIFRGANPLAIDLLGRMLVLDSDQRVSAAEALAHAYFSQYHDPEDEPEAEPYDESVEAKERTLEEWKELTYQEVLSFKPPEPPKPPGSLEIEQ
The next assay deals with MELK (Homo sapiens, UniProt Q14680). To be noted: read-out: Remaining protein kinase activity. The method, then:
as §1

For another assay, the target named is T1, GCK (Homo sapiens, UniProt Q12851).
T1 sequence (Q12851 1-820): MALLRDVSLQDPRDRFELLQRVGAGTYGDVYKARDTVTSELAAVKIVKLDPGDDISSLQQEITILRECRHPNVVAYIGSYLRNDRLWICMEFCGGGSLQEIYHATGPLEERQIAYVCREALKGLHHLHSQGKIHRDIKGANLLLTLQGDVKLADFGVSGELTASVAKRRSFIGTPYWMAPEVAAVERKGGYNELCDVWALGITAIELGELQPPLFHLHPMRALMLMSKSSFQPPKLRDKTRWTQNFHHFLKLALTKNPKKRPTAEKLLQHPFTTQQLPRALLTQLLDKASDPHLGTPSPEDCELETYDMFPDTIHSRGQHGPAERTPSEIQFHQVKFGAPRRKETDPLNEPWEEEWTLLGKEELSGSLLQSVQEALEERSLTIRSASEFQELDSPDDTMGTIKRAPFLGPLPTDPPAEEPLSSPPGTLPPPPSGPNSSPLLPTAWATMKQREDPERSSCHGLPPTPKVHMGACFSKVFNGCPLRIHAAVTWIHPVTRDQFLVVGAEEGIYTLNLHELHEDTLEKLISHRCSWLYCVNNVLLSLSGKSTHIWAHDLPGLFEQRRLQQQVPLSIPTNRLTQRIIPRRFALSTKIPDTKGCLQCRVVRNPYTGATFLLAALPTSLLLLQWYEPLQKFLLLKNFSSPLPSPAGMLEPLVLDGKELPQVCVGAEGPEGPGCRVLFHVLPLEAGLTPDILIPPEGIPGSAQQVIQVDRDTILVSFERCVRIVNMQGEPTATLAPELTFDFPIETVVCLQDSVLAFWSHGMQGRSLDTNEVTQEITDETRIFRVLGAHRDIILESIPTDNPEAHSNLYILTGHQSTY
To be noted: read-out: Remaining protein kinase activity. The method, then: as §1

A further assay addresses T2, TLK1 (Homo sapiens, UniProt Q9UKI8).
T2 sequence (Q9UKI8 1-766): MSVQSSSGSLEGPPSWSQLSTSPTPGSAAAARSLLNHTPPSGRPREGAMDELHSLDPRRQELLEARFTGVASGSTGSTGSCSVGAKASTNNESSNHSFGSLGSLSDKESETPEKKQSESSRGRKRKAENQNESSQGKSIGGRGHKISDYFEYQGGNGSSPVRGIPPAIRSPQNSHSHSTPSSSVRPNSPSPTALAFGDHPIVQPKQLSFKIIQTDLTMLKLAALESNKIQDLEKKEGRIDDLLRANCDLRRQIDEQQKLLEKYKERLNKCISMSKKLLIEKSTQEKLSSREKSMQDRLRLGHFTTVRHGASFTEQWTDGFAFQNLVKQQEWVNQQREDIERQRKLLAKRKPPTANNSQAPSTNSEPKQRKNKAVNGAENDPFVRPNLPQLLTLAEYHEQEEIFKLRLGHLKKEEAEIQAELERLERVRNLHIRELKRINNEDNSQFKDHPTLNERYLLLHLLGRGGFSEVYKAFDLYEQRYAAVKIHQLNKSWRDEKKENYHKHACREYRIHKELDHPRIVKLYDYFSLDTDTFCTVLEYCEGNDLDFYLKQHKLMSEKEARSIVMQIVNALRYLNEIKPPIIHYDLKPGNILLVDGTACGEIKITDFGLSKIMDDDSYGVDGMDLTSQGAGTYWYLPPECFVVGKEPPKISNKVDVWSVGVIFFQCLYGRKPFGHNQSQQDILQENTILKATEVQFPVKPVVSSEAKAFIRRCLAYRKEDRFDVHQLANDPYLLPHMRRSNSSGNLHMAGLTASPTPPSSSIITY
To be noted: read-out: Remaining protein kinase activity. The method, then:
as §1

Another assay addresses T3, IRAK4 (Homo sapiens, UniProt Q9NWZ3).
T3 sequence (Q9NWZ3 1-460): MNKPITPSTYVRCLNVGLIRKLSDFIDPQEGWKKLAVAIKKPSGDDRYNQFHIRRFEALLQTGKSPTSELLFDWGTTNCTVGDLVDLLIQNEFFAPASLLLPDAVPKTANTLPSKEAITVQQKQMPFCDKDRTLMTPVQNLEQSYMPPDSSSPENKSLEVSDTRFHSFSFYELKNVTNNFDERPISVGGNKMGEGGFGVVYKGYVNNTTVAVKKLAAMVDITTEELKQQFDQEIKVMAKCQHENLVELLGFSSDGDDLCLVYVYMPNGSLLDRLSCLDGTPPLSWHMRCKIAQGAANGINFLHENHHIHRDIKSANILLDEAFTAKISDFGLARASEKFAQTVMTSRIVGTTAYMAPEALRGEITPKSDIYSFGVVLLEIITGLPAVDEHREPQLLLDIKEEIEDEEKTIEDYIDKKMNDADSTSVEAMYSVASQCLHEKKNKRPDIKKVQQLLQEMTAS
On the procedure: as §1

Another assay has as its target PKA (Homo sapiens, UniProt P17612). To be noted: read-out: Remaining protein kinase activity. On the procedure:
as §1

The target of another assay is CK1δ (Homo sapiens, UniProt P48730). The following applies: read-out: Remaining protein kinase activity. The method, then:
as §1

The structures appear in SMILES notation. Where two headings read alike, the source gives them in different places.

MELK, sequence (Q14680 whole entry): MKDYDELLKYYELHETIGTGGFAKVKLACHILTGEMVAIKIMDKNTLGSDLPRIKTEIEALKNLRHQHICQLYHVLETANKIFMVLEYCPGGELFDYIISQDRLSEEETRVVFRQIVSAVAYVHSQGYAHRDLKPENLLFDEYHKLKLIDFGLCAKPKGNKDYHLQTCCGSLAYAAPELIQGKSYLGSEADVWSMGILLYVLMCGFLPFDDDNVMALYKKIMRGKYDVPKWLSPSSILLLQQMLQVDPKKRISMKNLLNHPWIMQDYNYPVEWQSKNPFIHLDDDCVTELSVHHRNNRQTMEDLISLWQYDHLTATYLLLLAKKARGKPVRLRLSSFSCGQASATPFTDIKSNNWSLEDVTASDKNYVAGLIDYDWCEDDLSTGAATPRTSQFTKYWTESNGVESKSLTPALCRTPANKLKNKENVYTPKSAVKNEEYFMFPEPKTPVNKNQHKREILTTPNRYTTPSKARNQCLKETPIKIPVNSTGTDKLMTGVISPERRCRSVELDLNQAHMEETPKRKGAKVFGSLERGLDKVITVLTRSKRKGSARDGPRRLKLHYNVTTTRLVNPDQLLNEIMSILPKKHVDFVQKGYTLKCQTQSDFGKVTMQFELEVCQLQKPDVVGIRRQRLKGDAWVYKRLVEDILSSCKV
CK1δ, sequence (P48730 whole entry): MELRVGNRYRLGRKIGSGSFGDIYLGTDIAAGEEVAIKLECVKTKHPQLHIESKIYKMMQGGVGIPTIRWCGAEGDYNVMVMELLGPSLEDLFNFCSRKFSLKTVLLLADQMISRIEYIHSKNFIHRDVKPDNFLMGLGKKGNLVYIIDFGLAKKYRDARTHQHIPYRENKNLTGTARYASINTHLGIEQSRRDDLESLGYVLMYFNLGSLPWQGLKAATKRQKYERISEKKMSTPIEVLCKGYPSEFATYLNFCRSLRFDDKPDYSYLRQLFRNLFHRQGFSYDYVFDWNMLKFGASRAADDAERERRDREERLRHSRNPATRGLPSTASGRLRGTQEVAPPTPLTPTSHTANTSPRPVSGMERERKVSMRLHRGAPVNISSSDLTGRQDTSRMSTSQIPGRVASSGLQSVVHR

Take `COc1ccc2sc(-c3cncc(N)c3)nc2c1` [compound 1, 5-(5-Methoxybenzo[d]thiazol-2-yl)pyridin-3-amine]: the “Remaining protein kinase activity” value at CDK2-Cyclin A (1 μM) was 96%; on CDK2-Cyclin A (100 μM), 19%; on IRAK4 (1 μM), 85%; at IRAK4 (100 μM), 18%. Further, the remaining activity at 1 µM on p38b MAPK (p38b MAPK, 1 μM) amounted to 119%; on MELK (MELK, 1 μM), 96%; on GCK (GCK, 1 μM), 105%; at TLK1 (TLK1, 1 μM), 131%; at PKA (PKA, 1 μM), 98%; on CK1δ (CK1δ, 1 μM), 107%. Also, the remaining activity at 100 µM turned out to be 101% on p38b MAPK (p38b MAPK, 100 μM); 12% at MELK (MELK, 100 μM); 28% on GCK (GCK, 100 μM); 115% at TLK1 (TLK1, 100 μM); 74% at PKA (PKA, 100 μM); 13% on CK1δ (CK1δ, 100 μM).

Consider `COc1ccc2sc(-c3cncc(NC(C)=O)c3)nc2c1` [PST-001, N-(5-(5-Methoxybenzo[d]thiazol-2-yl)pyridin-3-yl)acetamide], for which the “Remaining protein kinase activity” value on CDK2-Cyclin A (1 μM) worked out at 110%; on CDK2-Cyclin A (100 μM), 69%; at IRAK4 (1 μM) it was 88%; at IRAK4 (100 μM), 32%. The remaining activity at 100 µM amounted to 115% on p38b MAPK; 44% on MELK; 123% at GCK; 134% at TLK1; 88% on PKA; 59% on CK1δ. Moreover, the remaining activity at 1 µM on MELK is 99%; on GCK, 118%; on TLK1, 129%; on PKA, 88%; on CK1δ, 99%.

The values above are taken from publication PMC8617627, “Novel DYRK1A Inhibitor Rescues Learning and Memory Deficits in a Mouse Model of Down Syndrome” (Pharmaceuticals, 2021).
